Each compound was assayed against T1, Chk1 (Homo sapiens, UniProt O14757) (assay: Chk1 assay: incorporation of γ-33P ATP into immobilized myelin basic protein). Conditions: not given.
T1 construct: purchased Upstate Biotechnology
T1 sequence (O14757 1-476): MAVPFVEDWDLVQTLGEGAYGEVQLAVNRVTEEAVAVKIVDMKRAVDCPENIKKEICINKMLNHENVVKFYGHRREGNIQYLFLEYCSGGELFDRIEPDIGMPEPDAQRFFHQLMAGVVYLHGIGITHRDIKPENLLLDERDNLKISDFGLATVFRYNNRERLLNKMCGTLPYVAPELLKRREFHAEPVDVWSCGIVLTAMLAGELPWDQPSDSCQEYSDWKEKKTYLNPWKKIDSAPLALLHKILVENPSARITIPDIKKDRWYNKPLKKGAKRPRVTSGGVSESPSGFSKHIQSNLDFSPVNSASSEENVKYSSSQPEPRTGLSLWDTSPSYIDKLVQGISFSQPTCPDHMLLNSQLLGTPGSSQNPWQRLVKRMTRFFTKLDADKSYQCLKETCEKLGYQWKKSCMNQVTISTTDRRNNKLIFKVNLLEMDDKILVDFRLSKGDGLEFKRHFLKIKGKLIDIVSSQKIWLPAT
Type: biochemical
Description: Chk1 and Chk2 assays were performed by measuring incorporation of γ-^33P ATP into immobilized myelin basic protein (MBP). High binding white 384 well plates (Greiner) were coated with MBP (Sigma #M-1891) by incubation of 60ul/well of 20µg/ml MBP in Tris-buffered saline (TBS; 50mM Tris pH 8.0, 138mM NaCl, 2.7mM KCl) for 24 hours at 4° C. Plates were washed 3X with 100µl TBS. Kinase reactions were carried out in a total volume of 34µl in kinase buffer (5mM Hepes pH 7.6, 15mM NaCl, 0.01% bovine gamma globulin (Sigma #I-5506), 10mM MgCl2, 1mM DTT, 0.02% TritonX-100). Compound dilutions were performed in DMSO and added to assay wells to a final DMSO concentration of 1%. Each data point was measured in duplicate, and at least two duplicate assays were performed for each individual compound determination. Chkl and Chk2 enzymes (Upstate Biotechnology) were added to final concentrations of 10nM (Chkl) or 20nM (Chk2). A mixture of unlabeled ATP and γ-^33P ATP was added to start the reaction (2x10^6 cpm of γ-^33P ATP per well (3000Ci/mmole) and either 10µM or 30µM unlabeled ATP (for Chkl and Chk2 assays respectively). The reaction was carried out for 1 hour at room temperature with shaking. Plates were washed 7x with TBS, followed by the addition of 50µl/well scintillation fluid (Wallac). Plates were read using a Wallac Trilux counter. This is only one format of such assays, various other formats are possible, as known to those skilled in the art.
The above assay procedure can be used to determine the IC50 for inhibition and/or the inhibition constant Ki. The IC50 is defined as the concentration of compound required to reduce the enzyme activity by 50% under the conditions of the assay. […] The Ki for a compound may be determined from the IC50 based on three assumptions. First, only one compound molecule binds to the enzyme and there is no cooperativity. […] Third, the enzymatic rate of the enzyme-inhibitor complex is zero. The rate (i.e., compound concentration) data are fitted to the equation: V = Vmax E0 [I-((E0+I0+Kd)-sqrt(((E0+I0+Kd))^2 -4E0 I0))/(2E0)] [formula]

SMILES	IC50
Cc1ccc(C(=O)Nc2cccc(-c3cnc(N)c(C(=O)N[C@H]4CCCNC4)n3)c2)cn1 [compound 978, 3-amino-6-(3-{[(6-methylpyridin-3-yl)carbonyl]amino}phenyl)-N-[(3S)-piperidin-3-yl]pyrazine-2-carboxamide]	< 0.05 µM
Nc1ncc(-c2cccc(C(=O)NCc3ccc(-c4cccs4)cc3)c2)nc1C(=O)N[C@H]1CCCNC1 [compound 854, 3-amino-N-[(3S)-piperidin-3-yl]-6-{3-[({[4-(2-thienyl)phenyl]methyl}amino)carbonyl]phenyl}pyrazine-2-carboxamide]	< 0.05 µM
Nc1ncc(-c2cccc(C(=O)NCc3cc(C(F)(F)F)ccc3Cl)c2)nc1C(=O)N[C@H]1CCCNC1 [compound 994, 3-amino-6-{3-[({[2-chloro-5-(trifluoromethyl)phenyl]methyl}amino)carbonyl]phenyl}-N-[(3S)-piperidin-3-yl]pyrazine-2-carboxamide]	< 0.05 µM

Same assay, conditions: Table 11; Chk1 only

SMILES	IC50
Cc1ccccc1-c1cnc(N)c(C(N)=O)n1 [compound 16, 3-amino-6-(2-methylphenyl)pyrazine-2-carboxamide]	> 10 µM
Cc1cccc(-c2cnc(N)c(C(N)=O)n2)c1 [compound 33, 3-amino-6-(3-methylphenyl)pyrazine-2-carboxamide]	1 to 10 µM
NC(=O)c1nc(-c2cccc(Cl)c2)cnc1N [compound 3, 3-amino-6-(3-chlorophenyl)pyrazine-2-carboxamide]	> 10 µM
CNC(=O)c1nc(-c2noc(C)n2)cnc1N [compound 71, 3-amino-N-methyl-6-(5-methyl-1,2,4-oxadiazol-3-yl)pyrazine-2-carboxamide]	1 to 10 µM
NC(=O)c1cccc(-c2cnc(N)c(C(N)=O)n2)c1 [compound 29, 3-amino-6-[3-(aminocarbonyl)phenyl]pyrazine-2-carboxamide]	1 to 10 µM
CCOc1cccc(-c2cnc(N)c(C(=O)NC)n2)c1 [compound 50, 3-amino-6-[3-(ethyloxy)phenyl]-N-methylpyrazine-2-carboxamide]	1 to 10 µM
CNC(=O)c1nc(-c2cccc(NC(C)=O)c2)cnc1N [compound 56, 6-[3-(acetylamino)phenyl]-3-amino-N-methylpyrazine-2-carboxamide]	0.05 to 1 µM
CCCNC(=O)c1nc(-c2ccccc2)cnc1NCCC [compound 15, 6-phenyl-N-propyl-3-(propylamino)pyrazine-2-carboxamide]	> 10 µM
CN(C)c1ccc(-c2cnc(N)c(C(N)=O)n2)cc1 [compound 32, 3-amino-6-[4-(dimethylamino)phenyl]pyrazine-2-carboxamide]	1 to 10 µM
Nc1ncc(-c2ccccc2)nc1C(=O)N1CCCC1 [compound 11, 5-phenyl-3-(pyrrolidin-1-ylcarbonyl)pyrazin-2-amine]	> 10 µM
NC(=O)c1nc(-c2ccc(F)c(F)c2)cnc1N [compound 21, 3-amino-6-(3,4-difluorophenyl)pyrazine-2-carboxamide]	> 10 µM
CNC(=O)c1nc(-c2ccc(F)cc2)cnc1N [compound 22, 3-amino-6-(4-fluorophenyl)-N-methylpyrazine-2-carboxamide]	1 to 10 µM
NC(=O)c1nc(-c2ccc(OCc3ccccc3)cc2)cnc1N [compound 43, 3-amino-6-{4-[(phenylmethyl)oxy]phenyl}pyrazine-2-carboxamide]	> 10 µM
CNC(=O)c1nc(-c2cccc(C(C)=O)c2)cnc1N [compound 65, 6-(3-acetylphenyl)-3-amino-N-methylpyrazine-2-carboxamide]	1 to 10 µM
CNC(=O)c1nc(-c2cccnc2)cnc1N [compound 62, 3-amino-N-methyl-6-pyridin-3-ylpyrazine-2-carboxamide]	1 to 10 µM
Nc1ncc(-c2ccccc2)nc1C(=O)NCCc1ccccc1 [compound 1, 3-amino-6-phenyl-N-(2-phenylethyl)pyrazine-2-carboxamide]	> 10 µM
NC(=O)c1nc(-c2ccc(-c3ccccc3)cc2)cnc1N [compound 31, 3-amino-6-biphenyl-4-ylpyrazine-2-carboxamide]	> 10 µM
CNC(=O)c1cccc(-c2cnc(N)c(C(=O)NC)n2)c1 [compound 64, 3-amino-N-methyl-6-{3-[(methylamino)carbonyl]phenyl}pyrazine-2-carboxamide]	1 to 10 µM
NC(=O)c1nc(-c2cccc(O)c2)cnc1N [compound 36, 3-amino-6-(3-hydroxyphenyl)pyrazine-2-carboxamide]	0.05 to 1 µM
CCOc1cccc(-c2cnc(N)c(C(N)=O)n2)c1 [compound 24, 3-amino-6-[3-(ethyloxy)phenyl]pyrazine-2-carboxamide]	1 to 10 µM
CNC(=O)c1nc(-c2noc(C3CCCCC3)n2)cnc1N [compound 68, 3-amino-6-(5-cyclohexyl-1,2,4-oxadiazol-3-yl)-N-methylpyrazine-2-carboxamide]	> 10 µM
CCOc1ccc(-c2cnc(N)c(C(N)=O)n2)cc1 [compound 23, 3-amino-6-[4-(ethyloxy)phenyl]pyrazine-2-carboxamide]	1 to 10 µM
COCCNC(=O)c1nc(-c2ccccc2)cnc1N [compound 46, 3-amino-N-[2-(methyloxy)ethyl]-6-phenylpyrazine-2-carboxamide]	1 to 10 µM
Nc1ncc(-c2ccccc2)nc1C(=O)N[C@@H]1CCc2ccccc21 [compound 4, 3-amino-N-[(1R)-2,3-dihydro-1H-inden-1-yl]-6-phenylpyrazine-2-carboxamide]	> 10 µM

Same assay, conditions: Table 11; inhibition given as IC50 class symbol

SMILES	IC50
C[C@@H](NC(=O)c1cccc(-c2cnc(N)c(C(=O)N[C@H]3CCNC3)n2)c1)c1ccccc1 [compound 716, 3-amino-6-[3-({[(1R)-1-phenylethyl]amino}carbonyl)phenyl]-N-[(3S)-pyrrolidin-3-yl]pyrazine-2-carboxamide]	1 to 10 µM
Nc1ncc(-c2cccc(C(=O)NCc3cccnc3)c2)nc1C(=O)N[C@H]1CCNC1 [compound 762, 3-amino-6-(3-{[(pyridin-3-ylmethyl)amino]carbonyl}phenyl)-N-[(3S)-pyrrolidin-3-yl]pyrazine-2-carboxamide]	0.05 to 1 µM
Nc1ncc(-c2cccc(C(=O)N[C@H]3CCc4ccccc43)c2)nc1C(=O)N[C@H]1CCCNC1 [compound 764, 3-amino-6-(3-{[(1S)-2,3-dihydro-1H-inden-1-ylamino]carbonyl}phenyl)-N-[(3S)-piperidin-3-yl]pyrazine-2-carboxamide]	< 0.05 µM
CC(C)(C)c1nnc(-c2nc(-c3cccc(CO)c3)cnc2N)[nH]1 [compound 569, (3-{5-amino-6-[5-(1,1-dimethylethyl)-4H-1,2,4-triazol-3-yl]pyrazin-2-yl}phenyl)methanol]	1 to 10 µM

Reference: patent publication EP1501514B1, “PROTEIN KINASE MODULATORS AND METHODS OF USE” (Exelixis, Inc., priority 2002, dated 2003)
